Data on 47 compounds can be found in patent publication US20220073536A1 (Rigel Pharmaceuticals, Inc., priority 2003, published 2022).

Structures can show the parent of a compound that is named as a salt. Where two headings read alike, the source gives them in different places.

The assay has as its system cultured human mast cells (CHMC). The assay can be described thus: CHMC low cell density IgE activation: tryptase assay. The format is cell-based. As to conditions: low cell density CHMC, IgE activation. In short, it runs like this:
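Fluorogenic readout of tryptase released into the supernatant (30 min substrate incubation, room temperature) measures degranulation. Cells were plated at low density (1000–1500/well, varied by donor) and triggered with anti-IgE for 30 min at 37 °C.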

Where [1] appears, read: Homo sapiens, Mast cell, tryptase, 3 pt, read-out: LD Tryptase, CHMC, IgE, 3 pt.
Where [2] appears, read: tryptase, 8 pt, read-out: LD Tryptase, CHMC, IgE, 8 pt.
Where [3] appears, read: tryptase, 3 pt, read-out: LD Tryptase, CHMC, IgE, 3 pt.
[4] abbreviates: Homo sapiens, Mast cell, tryptase, 8 pt, read-out: LD Tryptase, CHMC, IgE, 8 pt.

With `O=C1COc2ccc(Nc3ncc(F)c(Nc4ccc5c(c4)NC(=O)CO5)n3)cc2N1` [Compound 1083, N2,N4-Bis (3-oxo-2H,4H-benz[1,4]oxazin-6-yl)-5-fluoro-2,4-pyrimidinediamine], the IC50 is less than 10 µM (Homo sapiens, Mast cell, tryptase readout, 3 pt, read-out: LD Tryptase, CHMC, IgE, 3 pt) and less than 10 µM (Homo sapiens, Mast cell, tryptase readout, 8 pt, read-out: LD Tryptase, CHMC, IgE, 8 pt).

On to `Cc1cc(C)cc(Nc2ncc(F)c(Nc3ccc4c(n3)NC(=O)[C@H](C)O4)n2)c1` [Compound 1084, (S)-N2-(3,5-Dimethylphenyl)-5-fluoro-N4-(2-methyl-3-oxo-2H,4H-5-pyrid[1,4]oxazin-6-yl)-2,4-pyrimidinediamine], for which the IC50 by setting is: (tryptase readout, 3 pt, read-out: LD Tryptase, CHMC, IgE, 3 pt) greater than 10 µM; (tryptase readout, 8 pt, read-out: LD Tryptase, CHMC, IgE, 8 pt) less than 10 µM.

Consider `CCOC(=O)N1CCN(c2cccc(Nc3ncc(F)c(NC4CN(C(=O)OC(C)(C)C)C4)n3)c2)CC1` [Compound 1129], for which the IC50 under setting [1] was greater than 10 µM.

Regarding `CCOC(=O)N1CCN(c2cccc(Nc3ncc(F)c(NC4CNC4)n3)c2)CC1` [Compound 1130], under setting [1], the IC50 was greater than 10 µM.

Take `CN1CCN(c2ccc(Nc3ncc(F)c(NC4CNC4)n3)cc2)CC1` [Compound 1131]: the IC50 under setting [1] is greater than 10 µM.

Take `Fc1cnc(Nc2cccc(-c3cnco3)c2)nc1Nc1ccc2c(n1)NCCO2` [Compound 1132, N4-(3,4-Dihydro-2H,4H-5-pyrid[1,4]oxazin-6-yl)-5-fluoro-N2-[3-(oxazol-5-yl)phenyl]-2,4-pyrimidinediamine]: under setting [2], the IC50 is less than 10 µM.

Take `CN(c1nc(Cl)ncc1F)C1CCC1` [Compound 1133, 2-Chloro-N4-cyclobutyl-5-fluoro-N4-methyl-4-pyrimidineamine]: under setting [1], the IC50 is greater than 10 µM.

As to `CC(=O)N1CCN(c2ccc(Nc3ncc(F)c(Nc4ccc5c(n4)NCCO5)n3)cc2)CC1` [Compound 1134, N2-[4-(4-Acetylpiperazino)phenyl]-N4-(3,4-dihydro-2H,4H-5-pyrid[1,4]oxazin-6-yl)-5-fluoro-2,4-pyrimidinediamine], the IC50 runs as follows: under setting [3], less than 10 µM; under setting [2], less than 10 µM.

Take `CCOC(=O)N1CCN(c2ccc(Nc3ncc(F)c(Nc4ccc5c(n4)NCCO5)n3)cc2)CC1` [Compound 1135, N4-(3,4-Dihydro-2H,4H-5-pyrid[1,4]oxazin-6-yl)-N2-[4-(4-ethoxycarbonylpiperazino)phenyl]-5-fluoro-2,4-pyrimidinediamine]: the IC50 under setting [3] was less than 10 µM and the IC50 under setting [2] is less than 10 µM.

Turning to `Fc1cnc(Nc2cccc(N3CCOCC3)c2)nc1Nc1ccc2c(n1)NCCO2` [Compound 1136, N4-(3,4-Dihydro-2H,4H-5-pyrid[1,4]oxazin-6-yl)-5-fluoro-N2-(3-morpholinophenyl)-2,4-pyrimidinediamine], the IC50 was less than 10 µM under setting [3] and less than 10 µM under setting [2].

On to `CC(=O)N1CCN(c2cccc(Nc3ncc(F)c(Nc4ccc5c(n4)NCCO5)n3)c2)CC1` [Compound 1137, N2-[3-(4-Acetylpiperazino)phenyl]-N4-(3,4-dihydro-2H,4H-5-pyrid[1,4]oxazin-6-yl)-5-fluoro-2,4-pyrimidinediamine], for which the IC50 under setting [3] is less than 10 µM and the IC50 under setting [2] was less than 10 µM.

`CCOC(=O)N1CCN(c2cccc(Nc3ncc(F)c(Nc4ccc5c(n4)NCCO5)n3)c2)CC1` [Compound 1138, N4-(3,4-Dihydro-2H,4H-5-pyrid[1,4]oxazin-6-yl)-N2-[3-(4-ethoxycarbonylpiperazino)phenyl]-5-fluoro-2,4-pyrimidinediamine]: the IC50 under setting [3] was less than 10 µM and the IC50 under setting [2] was less than 10 µM.

For the compound `CN1CCN(c2ccc(Nc3ncc(F)c(NC4CCC4)n3)cc2Cl)CC1` [Compound 1188, N4-Cyclobutyl-5-fluoro-N2-[3-chloro-4-(4-methylpiperazino)phenyl]-2,4-pyrimidinediamine], the IC50 under setting [1] was less than 10 µM.

`CC(=O)N1CCN(c2ccc(Nc3ncc(F)c(NC4CCC4)n3)cc2)CC1` [Compound 1192, N2-[4-(4-Acetylpiperazino)phenyl]-N4-cyclobutyl-5-fluoro-2,4-pyrimidinediamine Bis Hydrogen Chloride Salt]: the IC50 under setting [3] is less than 10 µM.

As for `CN1CCN(c2ccc(Nc3ncc(F)c(NC4CCCC4)n3)cc2Cl)CC1` [Compound 1195, N2-[3-Chloro-4-(4-methylpiperazino)phenyl]-N4-cyclopentyl-5-fluoro-2,4-pyrimidinediamine], under setting [1], the IC50 was less than 10 µM.

Consider `CN1CCN(c2ccc(Nc3ncc(F)c(Nc4cc(C5CC5)n[nH]4)n3)cc2Cl)CC1` [Compound 1196, N2-[3-Chloro-4-(4-methylpiperazino)phenyl]-N4-(3-cyclopropyl-1H-pyrazol-5-yl)-5-fluoro-2,4-pyrimidinediamine], for which the IC50 under setting [1] is less than 10 µM.

As for `CN1CCN(c2ccc(Nc3ncc(F)c(Nc4ccc5c(n4)NCCO5)n3)cc2Cl)CC1` [Compound 1197, N2-[3-Chloro-4-(4-methylpiperazino)phenyl]-N4-(3,4-dihydro-2H,4H-5-pyrid[1,4]oxazin-6-yl)-5-fluoro-2,4-pyrimidinediamine], the IC50 was less than 10 µM under setting [3] and less than 10 µM under setting [2].

For the compound `CN1CCN(c2ccc(Nc3ncc(F)c(NC4CCCCC4)n3)cc2Cl)CC1` [Compound 1199, N2-[3-Chloro-4-(4-methylpiperazino)phenyl]-N4-cyclohexyl-5-fluoro-2,4-pyrimidinediamine Bis Hydrogen Chloride Salt], under setting [2], the IC50 was less than 10 µM.

`Cc1cc(Nc2ncc(F)c(NC3CCCC3)n2)ccc1N1CCN(C)CC1` [Compound 1200]: the IC50 under setting [1] is less than 10 µM.

Consider `Cc1cc(Nc2ncc(F)c(NC3CCCCC3)n2)ccc1N1CCN(C)CC1` [Compound 1201], for which the IC50 under setting [1] was less than 10 µM and the IC50 under setting [4] was less than 10 µM.

For the compound `Cc1cc(Nc2ncc(F)c(Nc3cc(C4CC4)n[nH]3)n2)ccc1N1CCN(C)CC1` [Compound 1202], the IC50 is less than 10 µM under setting [1] and less than 10 µM under setting [4].

Turning to `Cc1cc(Nc2ncc(F)c(Nc3ccc4c(n3)NCCO4)n2)ccc1N1CCN(C)CC1` [Compound 1203, N4-(3,4-Dihydro-2H,4H-5-pyrid[1,4]oxazin-6-yl)-5-fluoro-N2-[3-methyl-4-(4-methylpiperazino)phenyl]-2,4-pyrimidinediamine], the IC50 under setting [3] was less than 10 µM and the IC50 under setting [2] was less than 10 µM.

Turning to `CC(C)Nc1nc(Nc2ccc(N3CCN(C)CC3)cc2)ncc1F` [Compound 1204], under setting [1], the IC50 is less than 10 µM.

Take `CC(C)Nc1nc(Nc2ccc(N3CCN(C)CC3)c(Cl)c2)ncc1F` [Compound 1205]: the IC50 under setting [1] was less than 10 µM.

Consider `Cc1cc(Nc2ncc(F)c(NC(C)C)n2)ccc1N1CCN(C)CC1` [Compound 1206], for which the IC50 is, setting by setting: under setting [1], less than 10 µM; under setting [4], greater than 10 µM.

Consider `CN1CCN(c2ccc(Nc3ncc(F)c(NC4CCC4)n3)cc2C(F)(F)F)CC1` [Compound 1207], for which, under setting [1], the IC50 was less than 10 µM.

For `CN1CCN(c2ccc(Nc3ncc(F)c(NC4CCCC4)n3)cc2C(F)(F)F)CC1` [Compound 1208], the IC50 under setting [1] is less than 10 µM.

For `CN1CCN(c2ccc(Nc3ncc(F)c(NC4CCCCC4)n3)cc2C(F)(F)F)CC1` [Compound 1209], the IC50 under setting [1] was less than 10 µM.

In the case of `CC(C)Nc1nc(Nc2ccc(N3CCN(C)CC3)c(C(F)(F)F)c2)ncc1F` [Compound 1210], the IC50 under setting [1] is less than 10 µM.

Take `CN1CCN(c2ccc(Nc3ncc(F)c(Nc4cc(C5CC5)n[nH]4)n3)cc2C(F)(F)F)CC1` [Compound 1211]: under setting [3], the IC50 was less than 10 µM.

On to `CN1C(C)(C)CC(Nc2nc(Cl)ncc2F)CC1(C)C` [Compound 1212], for which the IC50 under setting [1] is greater than 10 µM.

For `CCOC(=O)N1CCC(Nc2nc(Cl)ncc2F)CC1` [Compound 1213], the IC50 under setting [1] was greater than 10 µM.

`CC(C)Nc1nc(Nc2cccc(N3CCN(C)CC3)c2)ncc1F` [Compound 1214]: the IC50 under setting [1] is greater than 10 µM.

`CN1CCN(c2ccc(Nc3ncc(F)c(NC(C)(C)C)n3)cc2)CC1` [Compound 1215]: the IC50 under setting [1] is greater than 10 µM.

As to `CN1CCN(c2cccc(Nc3ncc(F)c(NC(C)(C)C)n3)c2)CC1` [Compound 1216], under setting [1], the IC50 was greater than 10 µM.

As to `CN1CCN(c2ccc(Nc3ncc(F)c(NC(C)(C)C)n3)cc2Cl)CC1` [Compound 1217], under setting [1], the IC50 was less than 10 µM.

Turning to `Cc1cc(Nc2ncc(F)c(NC(C)(C)C)n2)ccc1N1CCN(C)CC1` [Compound 1218], the IC50 under setting [4] was less than 10 µM.

Regarding `CN1CCN(c2ccc(Nc3ncc(F)c(NC4CC(C)(C)N(C)C(C)(C)C4)n3)cc2)CC1` [Compound 1219], the IC50 under setting [1] was greater than 10 µM.

In the case of `Cc1cc(Nc2ncc(F)c(NC3CCC3)n2)ccc1N1CCN(C)CC1` [Compound 1220], the IC50 under setting [4] was less than 10 µM.

For the compound `CN1CCN(c2cccc(Nc3ncc(F)c(NC4CC(C)(C)N(C)C(C)(C)C4)n3)c2)CC1` [Compound 1221], the IC50 under setting [1] is greater than 10 µM.

Turning to `CN1CCN(c2ccc(Nc3ncc(F)c(NC4CC(C)(C)N(C)C(C)(C)C4)n3)cc2Cl)CC1` [Compound 1222], the IC50 under setting [1] was greater than 10 µM.

Regarding `Cc1cc(Nc2ncc(F)c(NC3CC(C)(C)N(C)C(C)(C)C3)n2)ccc1N1CCN(C)CC1` [Compound 1223], under setting [1], the IC50 is less than 10 µM.

Regarding `CN1CCN(c2ccc(Nc3ncc(F)c(NC4CC(C)(C)N(C)C(C)(C)C4)n3)cc2C(F)(F)F)CC1` [Compound 1224], the IC50 under setting [1] is greater than 10 µM.

Turning to `CCOC(=O)N1CCC(Nc2nc(Nc3ccc(N4CCN(C)CC4)cc3)ncc2F)CC1` [Compound 1225], under setting [1], the IC50 is less than 10 µM.

For `CCOC(=O)N1CCC(Nc2nc(Nc3cccc(N4CCN(C)CC4)c3)ncc2F)CC1` [Compound 1226], the IC50 under setting [1] was less than 10 µM.

On to `CCOC(=O)N1CCC(Nc2nc(Nc3ccc(N4CCN(C)CC4)c(Cl)c3)ncc2F)CC1` [Compound 1227], for which the IC50 under setting [1] is less than 10 µM.

As for `CCOC(=O)N1CCC(Nc2nc(Nc3ccc(N4CCN(C)CC4)c(C)c3)ncc2F)CC1` [Compound 1228], under setting [1], the IC50 is less than 10 µM.
